# Results as given in patent US20090023646A1, “GHRH analogues” (Centre Hospitalier de L'Universite de Montreal (CHUM), priority 2002, published 2009).
# Square brackets hold non-standard residues; d marks the D form. Peptide text beside a SMILES is read from it.
# Experiments:
# in vitro = conditions: male, human, plasma
# Protocol: Ten μl of a 300 M solution of hGHRH (1-29)NH2 or of a GHRH analogue was solubilized in dimethylsulfoxide (DMSO) and incubated in one of the following conditions: a—190 μl serum (1/100 dilution in picopure water) from 2-month-old male Sprague Dawley rats, at 37° C. for 0, 8, 15, 30 or 60 min, in polypropylene tubes; b—190 μl of human healthy volunteer plasma (from Human Whole Blood Na EDTA, males, drug free (Algorithme Pharma Inc.); project: MTL-P2-155; Lot: MTLP2155-01, supplied by LAB Dev Int); and c—190 μl of human healthy volunteer pooled serum, Lot: X409 (supplied by LAB Dev Int), at 37° C. for 0, 60, 120, 180 or 420 min, in polypropylene tubes. Proteolysis was stopped by adding 800 μl of ice-cold stop buffer (potassium-phosphate buffer, acidified to pH 0.8 with trifluoroacetic acid (TFA) and boiling 5 min (rat serum only). After centrifugation (12000 g, 5 min, 4° C.) (rat serum only), serum-peptide mixtures were passed through a conditioned Sep-Pak C-18 cartridge to extract native GHRH or a GHRH analogue residual concentrations from serum proteins. The native GHRH or the analogue was eluted in 2 ml of 50% acetonitrile-0.01% TFA/50% 0.01% aqueous TFA. Two hundred μl of extracted peptide, representing 1 μg of GHRH or analogue at time 0, was quantified by analytical HPLC, using one μ-Bondapak C18 column (10 μm particle size, 0.39×15 cm) (rat serum) or two C18 column in series (human serum and plasma) and a binary solvent system composed of NaClO4 0.01 M, pH 2.5 and acetonitrile. A linear gradient from 30 to 60% acetonitrile over 45 min (rat serum) or 30 to 50% (human serum and plasma) was used.
# More specifically, the values represent the mean, standard deviation and standard error from the mean of 3 to 7 experiments.
# adult female rats = assay: In vivo GH secretion after single IV or SC injection in female rats; parameters: species or system rat
# Protocol: The ability of human GHRH analogue #5 (human [D-Ala^2, D-Tyr^10, D-Ala^15, Lys^22] GHRH (1-29)NH2 analogue) to stimulate GH secretion was studied in adult female rats (26-34 weeks at onset of treatment) and in a male Beagle dog.
# Human GHRH analogue #5 in 0.9% sodium chloride for injection USP was administered once either by intravenous (IV) or subcutaneous (SC) injection to female rats followed by a 14-day observation period, as shown in Table 2. Prior to administration, all dosing formulations were filtered using a 0.22 μm filter to ensure sterility. The actual amount of GHRH analogue #5 administered was calculated and adjusted based on the animal's most recent body weight. Dosing started at approximately the same time each day, commencing at 9:00 am±30 minutes.
# For pharmacodynamic investigations, blood samples (approximately 1.3 ml) were collected from 2 animals per group per time point (maximum 3 time points/animal) via a jugular venipuncture at the following time points: pre-dose, 4, 10, 15, 45 minutes and 5 hours post dosing. […]
# Plasma GH was determined by Linco Diagnostic Services using their own kit.
# Linco's Rat Growth Hormone radioimmunoassay kit (RIA) (RGH-45HK) is intended for the quantitative determination of Rat Growth Hormone in serum, plasma, and tissue culture media. […]
structure (smiles),measurement,setting,value
"CC[C@H](C)[C@H](NC(=O)[C@H](C)NC(=O)[C@H](CC(=O)O)NC(=O)[C@@H](C)NC(=O)[C@@H](N)Cc1ccc(O)cc1)C(=O)N[C@@H](Cc1ccccc1)C(=O)N[C@H](C(=O)N[C@@H](CC(N)=O)C(=O)N[C@@H](CO)C(=O)N[C@H](Cc1ccc(O)cc1)C(=O)N[C@@H](CCCNC(=N)N)C(=O)N[C@@H](CCCCN)C(=O)N[C@H](C(=O)N[C@@H](CC(C)C)C(=O)N[C@H](C)C(=O)N[C@@H](CCC(N)=O)C(=O)N[C@@H](CC(C)C)C(=O)N[C@@H](CO)C(=O)N[C@@H](C)C(=O)N[C@@H](CCCNC(=N)N)C(=O)N[C@@H](CCCCN)C(=O)N[C@@H](CCCCN)C(=O)N[C@@H](CC(C)C)C(=O)N[C@@H](CCC(N)=O)C(=O)N[C@@H](CC(=O)O)C(=O)N[C@H](C(=O)N[C@@H](CCSC)C(=O)N[C@@H](CO)C(=O)N[C@@H](CCCNC(=N)N)C(N)=O)[C@@H](C)CC)C(C)C)[C@@H](C)O [GHRH analogue #5, [D-Ala^2, D-Tyr^10, D-Ala^15, Lys^22] hGHRH(1-29)-NH2] (H-Y[dA]DAIFTNS[dY]RKVL[dA]QLSARKKLQDIMSR-NH2)","remaining at 1 h, 15 µM",in vitro; Mean residual amount,92%
same,"remaining at 2 h, 15 µM",in vitro; Mean residual amount,84%
same,"remaining at 3 h, 15 µM",in vitro; Mean residual amount,78%
same,"remaining at 7 h, 15 µM",in vitro; Mean residual amount,75%
same,"remaining at 3 h, 15 µM",in vitro; Residual peptide concentration,74 ± 7%
same,in vivo potency compared with the natural 44 amino acid GHRH,"adult female rats; in vivo, conclusion",at least two times more potent
same,GH secretion compared with response to natural hGHRH(1-44)NH2,"adult female rats; rat, pulse amplitude and AUC",twice larger
